Assays:
H. somni = assay: MIC, H. somni strains; type: cell-based; conditions: lung isolates at necropsy, natural BRD study, n=25
From the text: Primary screening of the compounds of the invention included the evaluation of antibacterial activity of analogs through determination of microbial inhibition concentration (MIC) as per CLSI guidelines. The screening panel included the relevant BRD pathogens: 1) M. haemolytica (e.g., 12726, 46571 and 49023, all AHDRCC; and 33396 (ATCC)); and 2) P. multocida (e.g., 34135 and 46572 (both AHDRCC) and 43137 (ATCC)). In some instances, H. somni (A700025K) pathogens were also included in the screening panel. The AHDRCC strains originated from the Zoetis BRD/SRD surveillance program and refer to the Animal Health Development and Research Culture Collection. In addition, the screen assessed S. aureus (29213 ATCC) as a representative Gram-positive isolate, E.faecalis (19433 ATCC) as a commensal gram-positive gastrointestinal bacterium and E. coli (100, 3110 and 25922 (ATCC)) for the evaluation of efflux potential. The screening panel BRD pathogens were assessed in determining antibacterial activity of the Formula (1) compounds.
All relevant BRD pathogens were initially screened at a top concentration of 64 μg/mL of a Formula (1) compound in an eleven-point dilution series. […] If an Example was purified further, the MICs moved […] essentially two dilutions across all strains tested in the screening panel.
In-Vitro MIC Model Compounds were analyzed for antibacterial activity against a panel of animal health specific gram-positive and gram-negative clinical strains by diluting compounds in DMSO to an appropriate stock concentration to determine the Minimal Inhibitory Concentration (MIC) via a semi-automated broth micro-dilution method (CLSI reference method) with QC strains and anti-microbial agent(s). Specifically, bacteria were grown overnight on TSA w/5% sheep blood agar plates and diluted in saline buffer to a McFarland Standard 0.5, then further diluted in cation-ion adjusted Mueller Hinton Broth to a final concentration of approximately 5×10^5 CFU/mL. 100 μL of inoculated media was added to 96-well plate(s) with 3 μL of serially diluted compound in each row. Depending on strain (see CLSI reference method), bacteria were incubated 18-22 hours at 35-37° C. in ambient air, with 5% CO2 or anaerobically (up to 48 hours).

[1] = system: natural bovine respiratory disease (BRD); assay: Natural bovine respiratory disease study, treatment failure; type: in vivo, beef calves; conditions: dosed on arrival to the feedlot, 14-day observation
Experimental: (§1) The primary clinical endpoint for efficacy was treatment failure/success over a 14-day observation period. Clinically normal beef calves (150-200 kg) at moderate risk for BRD were dosed on arrival to the feedlot. Animals (N=114/group) received saline (T01), 5 mg/kg M9 (T02) or 10 mg/kg M9 (T03); or Zactran (T04).

[2] = PK study, plasma concentration; type: in vivo; conditions: 10 mg/kg dose
Experimental: as §1

[3] = system: M. haemolytica (strain: OSU-012103-BHI); assay: Bovine M. haemolytica intratracheal lung challenge model, mortality; type: in vivo; conditions: 6 animals
Experimental: To evaluate immunomodulation effects and potential biomarkers, a bovine M. haemolytica (strain: OSU-012103-BHI) intratracheal lung challenge model study was completed utilizing M9 treatment in the presence and absence of bacterial challenge and a Draxxin® comparator. […] Animals were administered 0.05 mL/kg saline (T01), 10 mg/kg M9 (T02); Draxxin 2.5 mg/kg (T03) and 10 mg/kg M9 (T04) by subcutaneous injection on Day-1. Dose was based on body weight. Animals were challenge on Day 0 with the exception of T04. Blood was collected longitudinally throughout the study for biomarker evaluation panel (e.g., IL-6 and CD163) including two baseline samples prior to treatment. FIG. 4A depicts the area under the curve concentrations for IL-6 protein for individual animals against percent lung lesion scores and FIG. 4B depicts the CD163 fold change area under the curve for individual animals against percent lung lesion scores. Data is represented as percent lung lesion scores against the area under the curve (AUC) for IL-6 protein (immunoassay expressed in pg/mL) and CD163 (flow cytometric mean fluorescent intensity (MFI) in fold change from baseline). In both assays, a 2-fold change is typically considered to be relevant.

IL-6 = IL-6 biomarker in bovine M. haemolytica challenge; type: in vivo
Experimental: Cytokine Detection—An MSD U-Plex cytokine assay was developed following the MSD U-Plex protocol guide and included biotinylated capture antibodies against: bovine Interleukin (IL)-1β (Biorad), bovine IL-6 (R&D Systems) and bovine tumor necrosis factor (TNF)-α (R&D Systems). The anti-IL-1β antibody was biotinylated using EZ-Link Sulfo-NHS-Biotin (Thermo Scientific) at a challenge ratio of 1:20 according to manufacturer instructions. Assay calibrators (Kingfisher) were diluted to a concentration of […] in control lithium heparin plasma, followed by 4-fold serial dilutions into plasma. The detection antibodies were sulfo-tagged following the MSD quick guide conjugation protocol using a challenge ratio of 1:20. Antibodies were used at the following concentrations: anti-IL-1β at 1 μg/mL, anti-IL-6 at 1 μg/mL and anti-TNF-α at 0.5 μg/mL. Cytokines were quantified according to manufacturer's instructions using a chemiluminescent readout. In brief, 0.5 mL of all biotinylated antibodies were diluted to 10 μg/mL with Diluent 100 and paired to their respective linkers by adding 750 μL of supplied Linker solution and incubated for 30 minutes followed by addition of Stop solution for another 30 minutes. […] Plates were washed a further three times before addition of 150 μL 2X Read buffer and read immediately on the SI6000 instrument (MSD). […]

[4] = system: M. haemolytica challenge model; assay: Separate study, M9 versus saline control: lung lesions and mortality; type: in vivo; conditions: 10 mg/kg; saline control 38.9%, p=0.025
From the text: BRD infection as compared to saline (T01) in the M. haemolytica challenge model. […] Additionally, reduction of biomarkers consistent with the proposed mechanism were observed.

Question: For `CCCNC[C@]1(O)[C@H](C)O[C@@H](O[C@H]2[C@H](C)[C@@H](O[C@@H]3O[C@H](C)C[C@H](NC)[C@H]3O)[C@](C)(O)C[C@@H](C)CN[C@H](C)[C@@H](O)[C@](C)(O)[C@@H](CC)OC(=O)[C@@H]2C)C[C@@]1(C)OC` [Example M9, (2R,3S,4R,5R,8R,10R,11R,12S,13S,14R)-2-ethyl-3,4, 10-trihydroxy-13-(((2R,4R,5S,6S)-5-hydroxy-4-methoxy-4,6-dimethyl-5-((propylamino)methyl)-tetrahydro-2H-pyran-2-yl)oxy)-11-(((2S,3R,4S,6R)-3-hydroxy-6-methyl-4-(methylamino)tetrahydro-2H-pyran-2-yl)oxy)-3,5,8,10,12,14-hexamethyl-1-oxa-6-azacyclopentadecan-15-one], which “MIC Range” value (H. somni) is on record?
Answer: 8 to 64 µg/mL

Question: What about the Percent failure ([1]; 5 mg/kg) of the same molecule?
Answer: 19.3%

Question: What about the Percent failure ([1]; 10 mg/kg) of the same molecule?
Answer: 8.8%

Question: And the maximum plasma concentration [2]?
Answer: 5 µg/mL

Question: And the Mortality ([3]; M. haemolytica challenge Day 0, subcutaneous Day -1, M9 10 mg/kg, Draxxin 2.5 mg/kg)?
Answer: 1/6

Question: What about the Mortality ([3]; No challenge, M9 10 mg/kg subcutaneous Day -1) of the same molecule?
Answer: 0/6

Question: What about the IL-6 levels (IL-6) of the same molecule?
Answer: significantly reduced IL-6 levels

Question: And the Mortality [4]?
Answer: 13%
